# What was measured:
# [1] = (§1) The drug is tested on Z-024 corresponding to pig gut metagenome with ENA study accession number: PRJEB37062 and ENA sample accession number: ERS12561823 for biotransformation under anaerobic condition. The drug concentrations were measured over 9 timepoints collected between 0 and 24 hours of incubation by liquid-chromatography-coupled mass spectrometry (LC–MS); details: 2 µM
# [2] = as §1, with “Z-005” for “Z-024”, “to” for “to pig gut”, “ERS12561805” for “ERS12561823”; details: 2 µM
# [3] = as §1, with “Z-008” for “Z-024”, “to” for “to pig gut”, “ERS12561808” for “ERS12561823”; details: 2 µM
# [4] = human gut metagenome, 24 h, 2 µM
# [5] = as §1, with “WLS-038” for “Z-024”, “human” for “pig”, “ERS12561745” for “ERS12561823”; details: 2 µM
# [6] = as §1, with “Z-012” for “Z-024”, “to” for “to pig gut”, “ERS12561812” for “ERS12561823”; details: 2 µM
# [7] = as §1, with “Z-020” for “Z-024”, “rabbit” for “pig”, “ERS12561819” for “ERS12561823”; details: 2 µM
# [8] = human gut metagenome, 24 h, 2 µM; remark: listed apart in the source
# [9] = as §1, with “Z-013” for “Z-024”, “rabbit” for “pig”, “ERS12561813” for “ERS12561823”; details: 2 µM
# [10] = human gut metagenome, 24 h, 2 µM; remark: listed apart in the source
# [11] = as §1, with “Z-009” for “Z-024”, “ERS12561809” for “ERS12561823”; details: 2 µM
# [12] = human gut metagenome, 24 h, 2 µM; remark: listed apart in the source
# [13] = as §1, with “Z-016” for “Z-024”, “mouse” for “pig”, “ERS12561815” for “ERS12561823”; details: 2 µM
# [14] = as §1, with “WLS-006” for “Z-024”, “human” for “pig”, “ERS12561741” for “ERS12561823”; details: 2 µM
# [15] = human gut metagenome, 24 h, 2 µM; remark: listed apart in the source
# [16] = human gut metagenome, 24 h, 2 µM; remark: listed apart in the source
# [17] = as §1, with “Z-006” for “Z-024”, “mouse” for “pig”, “ERS12561806” for “ERS12561823”; details: 2 µM
# [18] = as §1, with “Z-029” for “Z-024”, “rat” for “pig”, “ERS12561828” for “ERS12561823”; details: 2 µM
# [19] = human gut metagenome, 24 h, 2 µM; remark: listed apart in the source
# [20] = as §1, with “Z-023” for “Z-024”, “to” for “to pig gut”, “ERS12561822” for “ERS12561823”; details: 2 µM
# Note: call rule not given here.
Compound,Bacterial Biotransformation [1],Bacterial Biotransformation [2],Bacterial Biotransformation [3],Bacterial Biotransformation [4],Bacterial Biotransformation [5],Bacterial Biotransformation [6],Bacterial Biotransformation [7],Bacterial Biotransformation [8],Bacterial Biotransformation [9],Bacterial Biotransformation [10],Bacterial Biotransformation [11],Bacterial Biotransformation [12],Bacterial Biotransformation [13],Bacterial Biotransformation [14],Bacterial Biotransformation [15],Bacterial Biotransformation [16],Bacterial Biotransformation [17],Bacterial Biotransformation [18],Bacterial Biotransformation [19],Bacterial Biotransformation [20]
CCCc1nc2c(C)cc(-c3nc4ccccc4n3C)cc2n1Cc1ccc(-c2ccccc2C(=O)O)cc1,Compound metabolized,Compound metabolized,Compound metabolized,Compound metabolized,Compound metabolized,Compound metabolized,Compound metabolized,Compound metabolized,Compound metabolized,Compound metabolized,Compound metabolized,Compound metabolized,Compound metabolized,Compound metabolized,Compound metabolized,Compound NOT metabolized,Compound metabolized,Compound NOT metabolized,Compound metabolized,Compound metabolized
CCCCC(=O)N(Cc1ccc(-c2ccccc2-c2nnn[nH]2)cc1)[C@H](C(=O)O)C(C)C,Compound NOT metabolized,Compound NOT metabolized,Compound NOT metabolized,Compound metabolized,Compound metabolized,Compound NOT metabolized,Compound NOT metabolized,Compound metabolized,Compound NOT metabolized,Compound metabolized,Compound NOT metabolized,Compound metabolized,Compound NOT metabolized,Compound metabolized,Compound metabolized,Compound metabolized,Compound NOT metabolized,Compound NOT metabolized,Compound metabolized,Compound NOT metabolized
CCC(COC(=O)c1cc(OC)c(OC)c(OC)c1)(c1ccccc1)N(C)C.O=C(O)/C=C\C(=O)O (configuration not stated),Compound NOT metabolized,Compound NOT metabolized,Compound NOT metabolized,Compound NOT metabolized,Compound NOT metabolized,Compound NOT metabolized,Compound metabolized,Compound NOT metabolized,Compound NOT metabolized,Compound metabolized,Compound metabolized,Compound metabolized,Compound NOT metabolized,Compound NOT metabolized,Compound NOT metabolized,Compound NOT metabolized,Compound NOT metabolized,Compound NOT metabolized,Compound metabolized,Compound metabolized
COc1ccc(CCN(C)CCCC(C#N)(c2ccc(OC)c(OC)c2)C(C)C)cc1OC (configuration not stated),Compound metabolized,Compound metabolized,Compound NOT metabolized,Compound metabolized,Compound NOT metabolized,Compound metabolized,Compound metabolized,Compound metabolized,Compound NOT metabolized,Compound metabolized,Compound metabolized,Compound metabolized,Compound NOT metabolized,Compound NOT metabolized,Compound NOT metabolized,Compound NOT metabolized,Compound NOT metabolized,Compound NOT metabolized,Compound metabolized,Compound metabolized
CN1CC(=O)N2[C@H](c3ccc4c(c3)OCO4)c3[nH]c4ccccc4c3C[C@@H]2C1=O,Compound metabolized,Compound NOT metabolized,Compound NOT metabolized,Compound metabolized,Compound metabolized,Compound metabolized,Compound NOT metabolized,Compound metabolized,Compound NOT metabolized,Compound metabolized,Compound metabolized,Compound metabolized,Compound metabolized,Compound metabolized,Compound NOT metabolized,Compound NOT metabolized,Compound NOT metabolized,Compound NOT metabolized,Compound metabolized,Compound metabolized
C=CCN1CC[C@]23c4c5ccc(O)c4O[C@H]2C(=O)CC[C@@]3(O)[C@H]1C5 [NALOXONE],Compound NOT metabolized,Compound NOT metabolized,Compound NOT metabolized,Compound NOT metabolized,Compound NOT metabolized,Compound NOT metabolized,Compound NOT metabolized,Compound NOT metabolized,Compound NOT metabolized,Compound NOT metabolized,Compound NOT metabolized,Compound NOT metabolized,Compound NOT metabolized,,Compound NOT metabolized,Compound NOT metabolized,Compound NOT metabolized,Compound NOT metabolized,Compound metabolized,Compound NOT metabolized
NC(=O)N1c2ccccc2CC(=O)c2ccccc21 [OXCARBAZEPINE],Compound metabolized,Compound metabolized,Compound NOT metabolized,Compound NOT metabolized,Compound NOT metabolized,Compound NOT metabolized,Compound NOT metabolized,Compound NOT metabolized,Compound NOT metabolized,Compound NOT metabolized,Compound metabolized,Compound NOT metabolized,Compound NOT metabolized,,Compound NOT metabolized,Compound NOT metabolized,Compound NOT metabolized,Compound NOT metabolized,Compound NOT metabolized,Compound metabolized
COC(=O)[C@H]1[C@H]2C[C@@H]3c4[nH]c5cc(OC)ccc5c4CCN3C[C@H]2C[C@@H](OC(=O)c2cc(OC)c(OC)c(OC)c2)[C@@H]1OC [RESERPINE],Compound NOT metabolized,Compound NOT metabolized,Compound NOT metabolized,Compound metabolized,Compound NOT metabolized,Compound NOT metabolized,Compound NOT metabolized,Compound metabolized,Compound NOT metabolized,,Compound NOT metabolized,Compound NOT metabolized,Compound NOT metabolized,Compound metabolized,Compound NOT metabolized,Compound NOT metabolized,Compound NOT metabolized,Compound NOT metabolized,Compound metabolized,Compound metabolized

# — ChEMBL document CHEMBL5724914, “Linking interpersonal differences in gut microbiota composition and drug biotransformation activity” (2024)
